Columns and labels:
[1] = test system: RatLaps (CTX) in rat serum; assay: CTX (RatLaps) in rat serum (Example 4); assay type: in vivo; details: Orx rats
Method: The assay was performed in duplicates, each 20 ul of serum as well as standards and control. Briefly, 100 ul of Biotinylated RatLaps Antigen was incubated 30 min in each well, strips were washed and 20 ul of Standard, Control and unknown samples were added to appropriate wells, followed by 100 ul of primary antibody (polyclonal Ab raised against a synthetic peptide EKSQDGGR specific for a part of the C-terminal telopeptide alpha 1 chain of rat type I collagen). After overnight incubation at 4 C., the wells were washed and 100 ul of Peroxidase conjugated Goat anti-Rabbit IgG Antibody was added to each well and incubated 60 min. After washing the strips 100 ul of the Chromogenic Substrate Solution was added to each well, and after 15 min the reaction was stopped and the absorbance was measured at 450 nm. The means of the duplicate absorbance determination were calculated, and a standard curve was constructed using 4-parametric logistic curve fit. Sample RatLaps concentrations were determined by interpolation.
(§1) Eight month-old male Sprague Dawley rats were either sham-operated (SHAM) or orchidectomized (ORX). Treatment began immediately following surgery. The treatment groups were as described in Table 5.

[2] = test system: orchidectomized rats (ORX); assay: Static and dynamic bone histomorphometry of the proximal tibia (Example 4); assay type: in vivo, rat; details: for loss of trabecular bone volume at the proximal tibia: 10 mg/kg/d Tor; for loss of trabecular bone volume at the proximal tibia / Orx-induced increase in bone turnover parameters at the proximal tibia: E 0.2 mg/kg/d; for Orx-induced increase in bone turnover parameters at the proximal tibia: Tor 5 and 10 mg/kg/d, p<0.05 vs. Orx+vehicle; for Bone Form Rate, Bone Volume Ref / Bone Form. Rate, Bone Surface Ref / Bone Formation Rate, Tissue Volume Ref / Mineral Apposition Rate / Mineralizing Surface / Osteoclast Number/Bone Surface / Osteoclast Surface / Trabecular Bone Volume / Trabecular Number / Trabecular Separation / Trabecular Thickness: proximal tibia, 6 wks, mean
Method: as §1
Animals were given calcein (intraperitoneally) 12 and 2 days prior to sacrifice. Femurs and lumbar vertebra (L5) were preserved frozen wrapped in saline-soaked gauze. Tibiae and lumbar vertebrae (L4) were preserved in 10% formalin for 48 hours, then transferred to 70% ethanol for long-term storage.
Histology and Static and Dynamic Bone Histomorphometry: Approximately 1.1 cm of the proximal tibia was cut away and the frontal face was trimmed with a low-speed diamond wheel saw to expose the marrow cavity. The L4 lumbar vertebral body was prepared from the lumbar vertebra by trimming off the processes with a slow-speed diamond saw. Each proximal tibia and lumbar vertebral body was dehydrated in a series of ascending ethanol (EtOH) concentrations. Following dehydration, the bone samples were infiltrated and then embedded in a methyl methacrylate-dibutyl phthalate plastic composite. Embedded samples of the proximal tibiae were sectioned using a Leitz motorized rotary microtome equipped with a tungsten-carbide microtome knife. Once the blocks had been trimmed and faced to the sampling site, a 4-micron section was stained with Goldner's trichrome stain for bright field microscopy and an 8-micron section was left unstained for epifluorescent microscopy. Embedded lumbar vertebral body samples were also sectioned using a Leitz motorized rotary microtome equipped with a tungsten-carbide microtome knife. Once the blocks had been trimmed and faced to the sampling site, a 4-micron section was stained with Goldner's trichrome stain for bright field microscopy and an 8-micron section was left unstained for epifluorescent microscopy.
The cancellous bone in the secondary spongiosa of the proximal tibia was evaluated in a region of interest (ROI) that was 1.0 mm distal to the lowest point of the growth plate in a rectilinear region of 3×2 fields. The cancellous bone in the marrow cavity of the lumbar vertebral body was evaluated in a ROI that was approximately 0.5 mm away from the end plates and dorsal and ventral cortices.
The bone histomorphometry was performed using an OsteoMeasure software program (OsteoMetrics, Inc., Atlanta, Ga.) interfaced with a Nikon Eclipse E400 light/epifluorescent microscope and video subsystem. All slides were analyzed in a blinded manner. Total tissue area, trabecular bone area, trabecular bone perimeter and osteoclast perimeter and number were measured on 4 μm Goldner's trichrome-stained sections. Percent trabecular bone area, trabecular number, trabecular thickness, trabecular separation, osteoclast perimeter as a percentage of bone surface and osteoclast number per unit of bone surface were then calculated according to standardized formulae. For deriving the dynamic parameters, single-labeled calcein perimeter, double-labeled calcein perimeter and interlabel width (label thickness) were measured on 8 μm unstained sections. Mineralizing surface, mineral apposition rate and bone formation rate-surface, bone and tissue referents were calculated.

[3] = test system: orchidectomized rats (ORX); assay: Compression test of the vertebral body (L5) (Example 4); assay type: in vivo, rat; details: for Elastic Modulus / Energy / Maximum Load / Stiffness / Toughness / Ultimate Strength: 12 weeks, vertebral body compression, mean
Method: (§2) Eight month-old male Sprague Dawley rats were either sham-operated (SHAM) or orchidectomized (ORX). Treatment began immediately following surgery. The treatment groups were as described in Table 5. Bone strength was evaluated using a compression test at the vertebral body, a three point bending test at the femoral shaft, a compression test at the distal femur and a cantilever compression test of the femoral neck. Prior to mechanical testing, all samples were thawed in cold saline and carefully cleaned of any remaining adherent soft tissue.

[4] = test system: orchidectomized rats (ORX); assay: Compression test of the distal femur (Example 4); assay type: in vivo, rat; details: for Elastic Modulus / Energy / Maximum Load / Stiffness / Toughness / Ultimate Strength: distal femur
Method: as §2

[5] = 28 days, E 0.2 mg/kg/d, 10 mg Tor
[6] = 42 days, E 0.2 mg/kg/d, 10 mg-Tor
[7] = Toremifene 5 mg/kg/d, Estradiol 0.2 mg/kg/d
[8] = week 12, Toremifene 5 and 10 mg/kg/d, Estradiol 0.2 mg/kg/d
[9] = Week 12, 5 mg/kg/d of Toremifene, Estradiol 0.2 mg/kg/d
[10] = week 6, mean, Toremifene 5 mg/kg/d, Estradiol 0.2 mg/kg/d
[11] = week 12, mean, Toremifene 5 mg/kg/d, Estradiol 0.2 mg/kg/d
[12] = week 6, mean, Toremifene 10 mg/kg/d
[13] = week 12, mean, Toremifene 10 mg/kg/d

Compound: C[C@]12CC[C@@H]3c4ccc(O)cc4CC[C@H]3[C@@H]1CC[C@@H]2O [17-β-Estradiol]
- CTX levels in serum ([1]; 10 days): Neither E nor Tor had any effect on CTX
- CTX levels in serum [1, 5]: reduced the CTX levels
- CTX levels in serum [1, 6]: CTX levels did not change further
- loss of trabecular bone volume at the proximal tibia [2]: very effective in preventing loss of trabecular bone volume
- Orx-induced increase in bone turnover parameters at the proximal tibia [2]: significantly inhibited
- Bone Form Rate, Bone Volume Ref [2, 7]: 42.70 %/yr
- Bone Form. Rate, Bone Surface Ref [2, 7]: 10.63 um^3/um^2/yr
- Bone Formation Rate, Tissue Volume Ref [2, 7]: 3.13 %/yr
- Mineral Apposition Rate [2, 7]: 0.43 um/day
- Mineralizing Surface [2, 7]: 5.31%
- Osteoclast Number/Bone Surface [2, 7]: 3.77 #/mm
- Osteoclast Surface [2, 7]: 6.35%
- Trabecular Bone Volume [2, 7]: 8.26%
- Trabecular Number [2, 7]: 1.75 #/mm
- Trabecular Separation [2, 7]: 572 um
- Trabecular Thickness [2, 7]: 47.11 um
- Elastic Modulus ([3]; 0.2 mg/kg/d): 589.03 MPa
- Energy ([3]; 0.2 mg/kg/d): 43.60 mJ
- Maximum Load ([3]; 0.2 mg/kg/d): 298.04 N
- Stiffness ([3]; 0.2 mg/kg/d): 1648.17 N/mm
- Toughness ([3]; 0.2 mg/kg/d): 0.94 MJ/m^3
- Ultimate Strength ([3]; 0.2 mg/kg/d): 25.75 N/mm^2
- ORX-induced decreases in bone strength, compression test of the vertebral body [3, 8]: prevented loss of bone strength due to ORX
- bone strength, compression test of the distal femur ([4]; Week 6): highest values in all groups
- bone strength, compression test of the distal femur [4, 9]: highest values at Week 12
- Elastic Modulus [4, 10]: 579.48 MPa
- Energy [4, 10]: 66.00 mJ
- Maximum Load [4, 10]: 561.45 N
- Stiffness [4, 10]: 4758.55 N/mm
- Toughness [4, 10]: 0.91 MJ/m^3
- Ultimate Strength [4, 10]: 22.89 N/mm^2
- Elastic Modulus [4, 11]: 473.02 MPa
- Energy [4, 11]: 55.94 mJ
- Maximum Load [4, 11]: 487.94 N
- Stiffness [4, 11]: 3714.71 N/mm
- Toughness [4, 11]: 0.78 MJ/m^3
- Ultimate Strength [4, 11]: 20.66 N/mm^2

Compound: CN(C)CCOc1ccc(/C(=C(/CCCl)c2ccccc2)c2ccccc2)cc1 [Toremifene]
- CTX levels in serum ([1]; 10 days): Neither E nor Tor had any effect on CTX
- CTX levels in serum [1, 5]: reduced the CTX levels
- CTX levels in serum [1, 6]: significantly lower CTX levels
- effect on CTX ([1]; 5 mg Tor): not uniform and cannot be interpreted
- loss of trabecular bone volume at the proximal tibia [2]: very effective in preventing loss of trabecular bone volume
- Orx-induced increase in bone turnover parameters at the proximal tibia [2]: significantly reduced the Orx-induced elevation in bone turnover parameters
- Bone Form Rate, Bone Volume Ref [2, 7]: 58.20 %/yr
- Bone Form. Rate, Bone Surface Ref [2, 7]: 10.78 um^3/um^2/yr
- Bone Formation Rate, Tissue Volume Ref [2, 7]: 2.30 %/yr
- Mineral Apposition Rate [2, 7]: 0.32 um/day
- Mineralizing Surface [2, 7]: 6.67%
- Osteoclast Number/Bone Surface [2, 7]: 3.98 #/mm
- Osteoclast Surface [2, 7]: 6.61%
- Trabecular Bone Volume [2, 7]: 5.33%
- Trabecular Number [2, 7]: 1.30 #/mm
- Trabecular Separation [2, 7]: 837.67 um
- Trabecular Thickness [2, 7]: 41.39 um
- Bone Form Rate, Bone Volume Ref ([2]; Toremifene 10 mg/kg/d): 21.26 %/yr
- Bone Form. Rate, Bone Surface Ref ([2]; Toremifene 10 mg/kg/d): 4.78 um^3/um^2/yr
- Bone Formation Rate, Tissue Volume Ref ([2]; Toremifene 10 mg/kg/d): 2.07 %/yr
- Mineral Apposition Rate ([2]; Toremifene 10 mg/kg/d): 0.34 um/day
- Mineralizing Surface ([2]; Toremifene 10 mg/kg/d): 3.02%
- Osteoclast Number/Bone Surface ([2]; Toremifene 10 mg/kg/d): 3.33 #/mm
- Osteoclast Surface ([2]; Toremifene 10 mg/kg/d): 5.27%
- Trabecular Bone Volume ([2]; Toremifene 10 mg/kg/d): 8.81%
- Trabecular Number ([2]; Toremifene 10 mg/kg/d): 1.85 #/mm
- Trabecular Separation ([2]; Toremifene 10 mg/kg/d): 570.89 um
- Trabecular Thickness ([2]; Toremifene 10 mg/kg/d): 45.54 um
- Elastic Modulus ([3]; 5 mg/kg/d): 446.38 MPa
- Energy ([3]; 5 mg/kg/d): 36.60 mJ
- Maximum Load ([3]; 5 mg/kg/d): 238.19 N
- Stiffness ([3]; 5 mg/kg/d): 1391.70 N/mm
- Toughness ([3]; 5 mg/kg/d): 0.72 MJ/m^3
- Ultimate Strength ([3]; 5 mg/kg/d): 19.08 N/mm^2
- Elastic Modulus ([3]; 10 mg/kg/d): 438.64 MPa
- Energy ([3]; 10 mg/kg/d): 27.02 mJ
- Maximum Load ([3]; 10 mg/kg/d): 206.48 N
- Stiffness ([3]; 10 mg/kg/d): 1255.47 N/mm
- Toughness ([3]; 10 mg/kg/d): 0.59 MJ/m^3
- Ultimate Strength ([3]; 10 mg/kg/d): 18.12 N/mm^2
- ORX-induced decreases in bone strength, compression test of the vertebral body [3, 8]: did not prevent these changes
- ORX-induced decreases in bone strength, compression test of the vertebral body ([3]; week 12, Toremifene at the 10 mg/kg/d dose): may have worsened the changes
- bone strength, compression test of the distal femur ([4]; Week 6): bone strength similar to that of Sham-operated animals
- bone strength, compression test of the distal femur [4, 9]: maintained similar strength
- bone strength, compression test of the distal femur ([4]; Week 12, 10 mg/kg/d Toremifene): small decrease in strength
- Elastic Modulus [4, 10]: 535.08 MPa
- Energy [4, 10]: 56.00 mJ
- Maximum Load [4, 10]: 469.64 N
- Stiffness [4, 10]: 4058.07 N/mm
- Toughness [4, 10]: 0.81 MJ/m^3
- Ultimate Strength [4, 10]: 20.54 N/mm^2
- Elastic Modulus [4, 12]: 440.77 MPa
- Energy [4, 12]: 66.19 mJ
- Maximum Load [4, 12]: 447.29 N
- Stiffness [4, 12]: 3549.70 N/mm
- Toughness [4, 12]: 0.91 MJ/m^3
- Ultimate Strength [4, 12]: 18.47 N/mm^2
- Elastic Modulus [4, 11]: 379.32 MPa
- Energy [4, 11]: 53.13 mJ
- Maximum Load [4, 11]: 458.79 N
- Stiffness [4, 11]: 3175.07 N/mm
- Toughness [4, 11]: 0.69 MJ/m^3
- Ultimate Strength [4, 11]: 18.09 N/mm^2
- Elastic Modulus [4, 13]: 418.05 MPa
- Energy [4, 13]: 45.57 mJ
- Maximum Load [4, 13]: 411.45 N
- Stiffness [4, 13]: 3366.63 N/mm
- Toughness [4, 13]: 0.62 MJ/m^3
- Ultimate Strength [4, 13]: 16.81 N/mm^2

Source: patent US7524866B2, “Prevention and treatment of androgen—deprivation induced osteoporosis” (GTx, Inc., priority 2001, dated 2009)
